Measured values published in US20230263822A1, “MODULATION OF FACTOR 11 EXPRESSION” (Ionis Pharmaceuticals, Inc., priority 2008, published 2023).

Assays:
[1] = parameters: species or system Sprague-Dawley rats; details: rat, in vivo, sc, 20 mg/kg
Experimental: The concentration of the full-length oligonucleotide as well as the total oligonucleotide concentration (including the degraded form) was measured. The method used is a modification of previously published methods (Leeds et al., 1996; Geary et al., 1999) which consist of a phenol-chloroform (liquid-liquid) extraction followed by a solid phase extraction. An internal standard (ISIS 355868, a 27-mer 2′-O-methoxyethyl modified phosphorothioate oligonucleotide, […], designated herein as SEQ ID NO: 270) was added prior to extraction. […] The results are presented in Tables 91 and 92, expressed as μg/g liver or kidney tissue. Half-lives were then calculated using WinNonlin software ([…]).

[2] = mouse, in vivo, sc, 50 mg/kg
[3] = Tolerability in CD1 mice: body weight and organ weights (Example 37); details: 50 mg/kg s.c. twice per week for 6 weeks; for body weight: increase in grams over the PBS control weight taken before the start of treatment; for Kidney weight / Liver weight / Spleen weight: percentage of the body weight
Experimental: Body weight was measured at the onset of the study and subsequently twice per week. The body weights of the mice are presented in Table 80 and are expressed increase in grams over the PBS control weight taken before the start of treatment. Liver, spleen, and kidney weights were measured at the end of the study, and are also presented in Table 80 as percentage of the body weight.

Factor 11 protein = Factor 11 protein in monkey plasma by sandwich ELISA (Example 45); format: in vivo, cynomolgus monkeys; details: escalating dose regimen; for Inhibition of Factor 11 protein relative to the PBS control: plasma ELISA
Experimental: (§1) Groups, each consisting of two male and three female monkeys, were injected subcutaneously with ISIS 416838, ISIS 416850, ISIS 416858, ISIS 416864, or ISIS 417002 in escalating doses. Antisense oligonucleotide was administered to the monkeys at 5 mg/kg three times per a week for week 1; 5 mg/kg twice per week for weeks 2 and 3; 10 mg/kg three times per week for week 4; 10 mg/kg twice per week for weeks 5 and 6; 25 mg/kg three times per week for week 7; and 25 mg/kg twice per week for weeks 8, 9, 10, 11, and 12. One control group, consisting of two male and three female monkeys, was injected subcutaneously with PBS according to the same dosing regimen. An additional experimental group, consisting of two male and three female monkeys, was injected subcutaneously with ISIS 416850 in a chronic, lower dose regimen. Antisense oligonucleotide was administered to the monkeys at 5 mg/kg three times per week for week 1; 5 mg/kg twice per week for week 2 and 3; 10 mg/kg three times per week for week 4; and 10 mg/kg twice per week for weeks 5 to 12. Body weights were measured weekly. Blood samples were collected 14 days and 5 days before the start of treatment and subsequently once per week for Factor 11 protein activity analysis in plasma, fibrinogen measurement, PT and aPTT measurements, bleeding times, and measurement of various hematologic factors. On day 85, the monkeys were euthanized by exsanguination while under deep anesthesia, and organs harvested for further analysis.
Plasma samples from all monkey groups taken on different days were analyzed by a sandwich-style ELISA assay (Affinity Biologicals Inc.) using an affinity-purified polyclonal anti-Factor 11 antibody as the capture antibody and a peroxidase-conjugated polyclonal anti-Factor 11 antibody as the detecting antibody. Monkey plasma was diluted 1:50 for the assay. Peroxidase activity was expressed by incubation with the substrate o-phenylenediamine. The color produced was quantified using a microplate reader at 490 nm and was considered to be proportional to the concentration of Factor 11 in the samples.
The results are presented in Table 115, expressed as percentage reduction relative to that of the PBS control.

[4] = Bleeding assay, Surgicutt Jr. device (Example 45); format: in vivo, cynomolgus monkeys; parameters: unit not given here; details: escalating dose regimen
Experimental: as §1
On different days during the treatment period, bleeding assay was performed using a Surgicutt Jr. device (ITC, New Jersey). Monkeys were placed in monkey chair with their arm placed in a steady support. The arm was lightly shaved and a sphygmomanometer was placed on the upper arm. The cuff of the sphygmomanometer was inflated to 40 mm Hg and this pressure was maintained throughout the procedure. The area on the upper arm to be incised was cleansed with an antiseptic swab and the Surgicutt Jr device was used to make an incision over the lateral aspect, volar surface of the forearm, parallel to and 5 cm below the antecubital crease. At the exact moment the incision was made, a stopwatch was started. Every 30 seconds, blood from the incision was blotted out using a blotting paper without directly touching the incision, so that formation of the platelet plug was not disturbed. Blood was blotted out every 30 seconds until blood no longer stained the paper. The stopwatch was then stopped and the bleeding time determined. The sphygmomanometer was removed from the animal's arm, the incision site was antiseptically swabbed and a wound closure strip applied. The ISIS oligonucleotide, ISIS 416850, given with the chronic dose regimen is distinguished from the other oligonucleotides with an asterisk (*).

416856 (antisense GGCATTGGTGCACAGTTTCT; 5-10-5 gapmer, further chemistry not given here) [compound 416856]
Half-life of ISIS oligonucleotides in the liver and kidney [1]: 19 days

ISIS 416858: MOE gapmer, nucleobases 1275 to 1318 of SEQ ID NO: 1 (Table 8) (antisense ACGGCATTGGTGCACAGTTT; MOE gapmer, wing and gap sizes not given here)
HCT [2]: 50%
Lymphocyte [2]: 5480 cells/μL
Neutrophil [2]: 2229 cells/μL
Platelets [2]: 782 10^3/μL
RBC [2]: 9 10^6/μL
WBC [2]: 8 10^3/μL
hemoglobin [2]: 14 g/dL
monocytes [2]: 248 cells/μL
body weight [3]: 12 g
Kidney weight [3]: 1.6%
Liver weight [3]: 7%
Spleen weight [3]: 0.6%
Factor 11 protein levels in plasma (Factor 11 protein; cynomolgus monkeys, ELISA): time-dependent decrease in protein levels
Inhibition of Factor 11 protein relative to the PBS control (Factor 11 protein; day 8): 6%
Inhibition of Factor 11 protein relative to the PBS control (Factor 11 protein; day 15): 16%
Inhibition of Factor 11 protein relative to the PBS control (Factor 11 protein; day 22): 23%
Inhibition of Factor 11 protein relative to the PBS control (Factor 11 protein; day 29): 28%
Inhibition of Factor 11 protein relative to the PBS control (Factor 11 protein; day 36): 35%
Inhibition of Factor 11 protein relative to the PBS control (Factor 11 protein; day 43): 39%
Inhibition of Factor 11 protein relative to the PBS control (Factor 11 protein; day 50): 49%
Inhibition of Factor 11 protein relative to the PBS control (Factor 11 protein; day 57): 60%
Inhibition of Factor 11 protein relative to the PBS control (Factor 11 protein; day 64): 68%
Inhibition of Factor 11 protein relative to the PBS control (Factor 11 protein; day 71): 71%
Inhibition of Factor 11 protein relative to the PBS control (Factor 11 protein; day 78): 73%
Inhibition of Factor 11 protein relative to the PBS control (Factor 11 protein; day 85): 78%
Inhibition of Factor 11 protein relative to the PBS control (Factor 11 protein; day −5): 0%
Inhibition of Factor 11 protein relative to the PBS control (Factor 11 protein; day −14): 0%
bleeding time ([4]; day 15): 146
bleeding time ([4]; day 22): 100
bleeding time ([4]; day 36): 206
bleeding time ([4]; day 43): 111
bleeding time ([4]; day 57): 138
bleeding time ([4]; day 64): 113
bleeding time ([4]; day 78): 186
bleeding time ([4]; day 85): 191
bleeding time ([4]; day −5): 149
bleeding time ([4]; day −14): 154

ISIS 416864: MOE gapmer, nucleobases 1275 to 1318 of SEQ ID NO: 1 (Table 8) (antisense GGCAGCGGACGGCATTGGTG; MOE gapmer, wing and gap sizes not given here)
HCT [2]: 52%
Lymphocyte [2]: 3921 cells/μL
Neutrophil [2]: 973 cells/μL
Platelets [2]: 750 10^3/μL
RBC [2]: 10 10^6/μL
WBC [2]: 5 10^3/μL
hemoglobin [2]: 15 g/dL
monocytes [2]: 141 cells/μL
body weight [3]: 12 g
Kidney weight [3]: 1.6%
Liver weight [3]: 5%
Spleen weight [3]: 0.3%
Inhibition of Factor 11 protein relative to the PBS control (Factor 11 protein; day 8): 7%
Inhibition of Factor 11 protein relative to the PBS control (Factor 11 protein; day 15): 9%
Inhibition of Factor 11 protein relative to the PBS control (Factor 11 protein; day 22): 7%
Inhibition of Factor 11 protein relative to the PBS control (Factor 11 protein; day 29): 10%
Inhibition of Factor 11 protein relative to the PBS control (Factor 11 protein; day 36): 9%
Inhibition of Factor 11 protein relative to the PBS control (Factor 11 protein; day 43): 9%
Inhibition of Factor 11 protein relative to the PBS control (Factor 11 protein; day 50): 10%
Inhibition of Factor 11 protein relative to the PBS control (Factor 11 protein; day 57): 7%
Inhibition of Factor 11 protein relative to the PBS control (Factor 11 protein; day 64): 5%
Inhibition of Factor 11 protein relative to the PBS control (Factor 11 protein; day 71): 10%
Inhibition of Factor 11 protein relative to the PBS control (Factor 11 protein; day 78): 9%
Inhibition of Factor 11 protein relative to the PBS control (Factor 11 protein; day 85): 8%
Inhibition of Factor 11 protein relative to the PBS control (Factor 11 protein; day −5): 5%
Inhibition of Factor 11 protein relative to the PBS control (Factor 11 protein; day −14): 0%
bleeding time ([4]; day 15): 153
bleeding time ([4]; day 22): 133
bleeding time ([4]; day 36): 205
bleeding time ([4]; day 43): 146
bleeding time ([4]; day 57): 216
bleeding time ([4]; day 64): 218
bleeding time ([4]; day 78): 170
bleeding time ([4]; day 85): 203
bleeding time ([4]; day −5): 111
bleeding time ([4]; day −14): 166
